For ten compounds, IC50 results are on record in patent US9988420B2, “Cytotoxic peptides and conjugates thereof” (priority 2013, dated 2018).

Starred links: 1 amine or outer side, 2 acyl side, 3 side chain; linkers in the order of their positions; H or OH if unused. Non-standard residues stand in square brackets, D forms with d. Residues, ends and D or L forms follow the SMILES beside them. Dolaproine = CO[C@@H]([C@@H]1CCCN1)[C@@H](C)C(=O)O; X1 = O=C([C@@H]1[C@H]2CC[C@H](C2)N1[*:1])[*:2]; Dil = CC[C@H](C)[C@H](NC)[C@@H](CC(=O)O)OC; Phe(ol) = N[C@H](CO)Cc1ccccc1

Experiment in all cases: In vitro cell killing assay of payloads (cell proliferation, Cell-Titer-Glo)
Common to all, as to type: cell-based

Test [1] deals with SKBR3 cells. Particulars: Homo sapiens, SK-BR-3, 120 h, Cell-Titer-Glo after five days. Here is the method:
(§1) For evaluation of the cell killing potency of the cytotoxic peptides of Formula (I) in vitro, cell proliferation assays were performed in parallel with 8 cell lines: MDA-MB231 clone 16, clone 40, JimT1, HCC1954, H526, KU812, CMK11-5 cells and Jurkat cells. In addition, in vitro, cell proliferation assays were performed using 3 other cell lines: A375, SKBR3 and NCI-N87. All the cell lines are described in more detail in Example 106 and were also used to assess the in vitro potency of immunoconjugates of the invention. The cell proliferation assays were conducted with Cell-Titer-Glo™ (Promega) five days after cells were incubated with various concentrations of ADCs (Riss et al., (2004) Assay Drug Dev Technol. 2:51-62).

Test [2] relates to NCI-N87 cells. The following applies: Homo sapiens, 120 h, Cell-Titer-Glo after five days. How it is done: as §1
The test system of test [3] is A375 cells. The following applies: Homo sapiens, A-375, 120 h, Cell-Titer-Glo after five days. How it is done: as §1
Test [4] has as its system H526 cells. Particulars: Homo sapiens, 120 h; NCI-H526 cells; Cell-Titer-Glo after five days; Table 2b; read-out: In vitro cell killing (IC50 (nM)) NCI-H526.
The test system of test [5] is JimT1 cells. Particulars: Homo sapiens, JIMT-1, 120 h; JimT1 cells; Cell-Titer-Glo after five days; Table 2b; read-out: In vitro cell killing (IC50 (nM)) JimT1.
Test [6] deals with HCC1954 cells. The following applies: Homo sapiens, 120 h; HCC1954 cells; Cell-Titer-Glo after five days; Table 2b; read-out: In vitro cell killing (IC50 (nM)) HCC1954.

By IC50 is commonly meant the concentration at which inhibition is half-maximal.

As to `CC[C@H](C)[C@@H]([C@@H](CC(=O)N1CCC[C@H]1[C@H](OC)[C@@H](C)C(=O)N[C@H](CO)Cc1ccccc1)OC)N(C)C(=O)[C@@H](NC(=O)[C@H]1N[C@@H]2CC[C@H]1C2)C(C)C` [Compound 50, (1R,3S,4S)-N-((S)-1-(((3R,4S,5S)-1-((S)-2-((1R,2R)-3-(((S)-1-Hydroxy-3-phenylpropan-2-yl)amino)-1-methoxy-2-methyl-3-oxopropyl)pyrrolidin-1-yl)-3-methoxy-5-methyl-1-oxoheptan-4-yl)(methyl)amino)-3-methyl-1-oxobutan-2-yl)-2-azabicyclo[2.2.1]heptane-3-carboxamide] (H-[X1]V[Dil][Dolaproine][Phe(ol)]), the 50% inhibitory concentration (IC50) in test [1] is 5.66 nM; in test [2] it was 10.2 nM; in test [3], 5.16 nM; in test [4] it was 52.4 nM; in test [5], 57.6 nM.

With `CC[C@H](C)[C@@H]([C@@H](CC(=O)N1CCC[C@H]1[C@H](OC)[C@@H](C)C(=O)N[C@H](CO)Cc1cccc(N)c1)OC)N(C)C(=O)[C@@H](NC(=O)[C@@H]1[C@H]2CC[C@H](C2)N1C)C(C)C` [Compound 52, (1R,3S,4S)-N-((S)-1-(((3R,4S,5S)-1-((S)-2-((1R,2R)-3-(((S)-1-(3-Aminophenyl)-3-hydroxypropan-2-yl)amino)-1-methoxy-2-methyl-3-oxopropyl)pyrrolidin-1-yl)-3-methoxy-5-methyl-1-oxoheptan-4-yl)(methyl)amino)-3-methyl-1-oxobutan-2-yl)-2-methyl-2-azabicyclo[2.2.1]heptane-3-carboxamide], the 50% inhibitory concentration (IC50) is 0.046 nM in test [1], 0.068 nM in test [2], 0.923 nM in test [3] and 0.019 nM in test [6].

As for `CC[C@H](C)[C@@H]([C@@H](CC(=O)N1CCC[C@H]1[C@H](OC)[C@@H](C)C(=O)N[C@@H](Cc1ccccc1)c1nc(-c2ccccc2)c[nH]1)OC)N(C)C(=O)[C@@H](NC(=O)[C@H]1N[C@@H]2CC[C@H]1C2)C(C)C` [Compound 57, (1R,3S,4S)-N-((S)-1-(((3R,4S,5S)-3-Methoxy-1-((S)-2-((1R,2R)-1-methoxy-2-methyl-3-oxo-3-(((S)-2-phenyl-1-(5-phenyl-1H-imidazol-2-yl)ethyl)amino)propyl)pyrrolidin-1-yl)-5-methyl-1-oxoheptan-4-yl)(methyl)amino)-3-methyl-1-oxobutan-2-yl)-2-azabicyclo[2.2.1]heptane-3-carboxamide], the IC50 stood at 0.034 nM in test [1]; 0.019 nM in test [2]; 0.049 nM in test [3]; 1.11 nM in test [4]; 0.307 nM in test [5].

On to `CC[C@H](C)[C@@H]([C@@H](CC(=O)N1CCC[C@H]1[C@H](OC)[C@@H](C)C(=O)N[C@H](COC)Cc1ccccc1)OC)N(C)C(=O)[C@@H](NC(=O)[C@H]1N[C@@H]2CC[C@H]1C2)C(C)C` [Compound 58, (1R,3S,4S)-N-((S)-1-(((3R,4S,5S)-3-Methoxy-1-((S)-2-((1R,2R)-1-methoxy-3-(((S)-1-methoxy-3-phenylpropan-2-yl)amino)-2-methyl-3-oxopropyl)pyrrolidin-1-yl)-5-methyl-1-oxoheptan-4-yl)(methyl)amino)-3-methyl-1-oxobutan-2-yl)-2-azabicyclo[2.2.1]heptane-3-carboxamide], for which the IC50 in test [1] stood at 0.307 nM; in test [2], 0.31 nM; in test [3] it was 0.304 nM; in test [4], 4.08 nM; in test [5], 2.15 nM.

As for `CC[C@H](C)[C@@H]([C@@H](CC(=O)N1CCC[C@H]1[C@H](OC)[C@@H](C)C(=O)N[C@@H](Cc1ccccc1)c1cc[nH]n1)OC)N(C)C(=O)[C@@H](NC(=O)[C@H]1N[C@@H]2CC[C@H]1C2)C(C)C` [Compound 59, (1R,3S,4S)-N-((S)-1-(((3R,4S,5S)-3-Methoxy-1-((S)-2-((1R,2R)-1-methoxy-2-methyl-3-oxo-3-(((S)-2-phenyl-1-(1H-pyrazol-3-yl)ethyl)amino)propyl)pyrrolidin-1-yl)-5-methyl-1-oxoheptan-4-yl)(methyl)amino)-3-methyl-1-oxobutan-2-yl)-2-azabicyclo[2.2.1]heptane-3-carboxamide], the IC50 in test [1] is 3.12 nM; in test [2] it was 4.78 nM; in test [3] it was 3.55 nM; in test [4], 19.5 nM; in test [5], 37.5 nM.

Regarding `CC[C@H](C)[C@@H]([C@@H](CC(=O)N1CCC[C@H]1[C@H](OC)[C@@H](C)C(=O)N[C@@H](Cc1ccccc1)c1ncccn1)OC)N(C)C(=O)[C@@H](NC(=O)[C@H]1N[C@@H]2CC[C@H]1C2)C(C)C` [Compound 60, (1R,3S,4S)-N-((S)-1-(((3R,4S,5S)-3-Methoxy-1-((S)-2-((1R,2R)-1-methoxy-2-methyl-3-oxo-3-(((S)-2-phenyl-1-(pyrimidin-2-yl)ethyl)amino)propyl)pyrrolidin-1-yl)-5-methyl-1-oxoheptan-4-yl)(methyl)amino)-3-methyl-1-oxobutan-2-yl)-2-azabicyclo[2.2.1]heptane-3-carboxamide], the IC50 in test [1] was 0.591 nM; in test [2], 0.801 nM; in test [3] it was 0.45 nM; in test [4], 8.35 nM; in test [5], 4.82 nM.

Regarding `CC[C@H](C)[C@@H]([C@@H](CC(=O)N1CCC[C@H]1[C@H](OC)[C@@H](C)C(=O)N[C@H](Cc1ccccc1)c1ncccn1)OC)N(C)C(=O)[C@@H](NC(=O)[C@H]1N[C@@H]2CC[C@H]1C2)C(C)C` [Compound 61, (1R,3S,4S)-N-((S)-1-(((3R,4S,5S)-3-methoxy-1-((S)-2-((1R,2R)-1-methoxy-2-methyl-3-oxo-3-(((R)-2-phenyl-1-(pyrimidin-2-yl)ethyl)amino)propyl)pyrrolidin-1-yl)-5-methyl-1-oxoheptan-4-yl)(methyl)amino)-3-methyl-1-oxobutan-2-yl)-2-azabicyclo[2.2.1]heptane-3-carboxamide], the IC50 worked out at 6.1 nM in test [1]; 13.5 nM in test [2]; 5.43 nM in test [3]; 60.6 nM in test [4]; 66 nM in test [5].

As for `CC[C@H](C)[C@@H]([C@@H](CC(=O)N1CCC[C@H]1[C@H](OC)[C@@H](C)C(=O)N[C@@H](Cc1ccccc1)c1nc(-c2ccccc2)c[nH]1)OC)N(C)C(=O)[C@@H](NC(=O)[C@@H]1[C@H]2CC[C@H](C2)N1C)C(C)C` [Compound 66, (1R,3S,4S)-N-((S)-1-(((3R,4S,5S)-3-Methoxy-1-((S)-2-((1R,2R)-1-methoxy-2-methyl-3-oxo-3-(((S)-2-phenyl-1-(4-phenyl-1H-imidazol-2-yl)ethyl)amino)propyl)pyrrolidin-1-yl)-5-methyl-1-oxoheptan-4-yl)(methyl)amino)-3-methyl-1-oxobutan-2-yl)-2-methyl-2-azabicyclo[2.2.1]heptane-3-carboxamide], the IC50 in test [1] was determined as 0.031 nM; in test [3] it was 0.05 nM; in test [4] it was 0.126 nM; in test [5], 0.052 nM; in test [6], 0.023 nM.

Take `CC[C@H](C)[C@@H]([C@@H](CC(=O)N1CCC[C@H]1[C@H](OC)[C@@H](C)C(=O)N[C@H](COC)Cc1cccc(N)c1)OC)N(C)C(=O)[C@@H](NC(=O)[C@@H]1[C@H]2CC[C@H](C2)N1C)C(C)C` [Compound 72, (1R,3S,4S)-N-((S)-1-(((3R,4S,5S)-1-((S)-2-((1R,2R)-3-(((S)-1-(3-Aminophenyl)-3-methoxypropan-2-yl)amino)-1-methoxy-2-methyl-3-oxopropyl)pyrrolidin-1-yl)-3-methoxy-5-methyl-1-oxoheptan-4-yl)(methyl)amino)-3-methyl-1-oxobutan-2-yl)-2-methyl-2-azabicyclo[2.2.1]heptane-3-carboxamide]: the IC50 was 0.085 nM in test [1]; 0.189 nM in test [3]; 0.287 nM in test [4]; 0.224 nM in test [5]; 0.079 nM in test [6].

As for `CC[C@H](C)[C@@H]([C@@H](CC(=O)N1CCC[C@H]1[C@H](OC)[C@@H](C)C(=O)N[C@H](C)[C@@H](O)c1ccccc1)OC)N(C)C(=O)[C@@H](NC(=O)[C@@H]1[C@H]2CC[C@H](C2)N1C)C(C)C` [Compound 74, (1R,3S,4S)-N-((S)-1-(((3R,4S,5S)-1-((S)-2-((1R,2R)-3-(((1S,2R)-1-Hydroxy-1-phenylpropan-2-yl)amino)-1-methoxy-2-methyl-3-oxopropyl)pyrrolidin-1-yl)-3-methoxy-5-methyl-1-oxoheptan-4-yl)(methyl)amino)-3-methyl-1-oxobutan-2-yl)-2-methyl-2-azabicyclo[2.2.1]heptane-3-carboxamide], the half-maximal inhibitory concentration (IC50) in test [1] came out at 0.351 nM; in test [3], 0.571 nM; in test [4], 0.962 nM; in test [5] it was 0.587 nM; in test [6], 0.27 nM.
